As usually defined, the IC50 is the midpoint of a concentration-inhibition curve.

The values below come from ChEMBL document CHEMBL4052692, “Synthesis and biological activity of peptide proline-boronic acids as proteasome inhibitors” (Bioorg Med Chem, 2017).

Assay [1] relates to MGC-803. Kind of assay: Cytotoxicity against human MGC803 cells after 72 hrs by MTT assay. It counts as functional, cell-based. To be noted: MGC-803, 72 h. (Tetrazolium dyes change colour on reduction, which living cells bring about.)
The subject of assay [2] is HL-60. Kind of assay: Cytotoxicity against human HL60 cells after 72 hrs by MTT assay. It counts as functional, cell-based. To be noted: HL-60, 72 h.
For assay [3], the system named is A549. Kind of assay: Cytotoxicity against human A549 cells after 72 hrs by MTT assay. It counts as functional, cell-based. To be noted: A549, 72 h.
Assay [4] relates to MDA-MB-231. Kind of assay: Cytotoxicity against human MDA-MB-231 cells after 72 hrs by MTT assay. The class given is functional, cell-based. To be noted: MDA-MB-231, 72 h.
Assay [5] can be described thus: Selectivity ratio of IC50 for trypsin-like activity of 20S proteasome in human HL60 cells to IC50 for chymotrypsin-like activity of 20S proteasome in human HL60 cells.
A short description of assay [6]: Selectivity ratio of IC50 for PGPH-like activity of 20S proteasome in human HL60 cells to IC50 for chymotrypsin-like activity of 20S proteasome in human HL60 cells.
Assay [7] in a line: Cytotoxicity against human 95-D cells after 72 hrs by MTT assay. It counts as functional, cell-based.
Assay [8] addresses T1, Proteasome Macropain subunit MB1 (Homo sapiens, UniProt P28074).
T1 sequence (P28074 whole entry): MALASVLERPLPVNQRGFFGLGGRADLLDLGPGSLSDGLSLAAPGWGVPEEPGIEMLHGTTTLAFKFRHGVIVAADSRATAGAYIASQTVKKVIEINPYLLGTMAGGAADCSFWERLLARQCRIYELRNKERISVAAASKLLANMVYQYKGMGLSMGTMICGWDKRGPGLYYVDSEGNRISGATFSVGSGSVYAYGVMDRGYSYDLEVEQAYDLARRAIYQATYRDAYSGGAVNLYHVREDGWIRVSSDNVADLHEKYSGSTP
Kind of assay: Inhibition of chymotrypsin-like activity of 20S proteasome in human HL60 cells using Suc-LLVYaminoluciferin as substrate pretreated for 2 hrs followed by substrate addition by […]. The class given is cell-based.

Assay [9] relates to HCT-116. Kind of assay: Cytotoxicity against human HCT116 cells after 72 hrs by MTT assay. The class given is functional, cell-based. To be noted: HCT-116, 72 h.

For the molecule `CC(C)C[C@H](NC(=O)[C@H](Cc1ccccc1)NC(=O)N1CCc2ccccc2C1)C(=O)N1CCC[C@H]1B(O)O`, the IC50 in assay [1] was over 10000 nM.
On to `CC(C)C[C@H](NC(=O)c1cnccn1)C(=O)N[C@@H](CC(C)C)C(=O)N1CCC[C@H]1B(O)O`, for which the half-maximal inhibitory concentration (IC50) in assay [1] was 4430 nM.
On the same count and under the same terms, as for `O=C(N[C@@H](Cc1ccccc1)C(=O)N[C@@H](Cc1ccc2ccccc2c1)C(=O)N1CCC[C@H]1B(O)O)c1cnccn1`, the figure is 110 nM; as for `CC(C)C[C@H](NC(=O)c1cnccn1)C(=O)N[C@@H](Cc1ccccc1)C(=O)N1CCC[C@H]1B(O)O`, 27.2 nM; as for `O=C(N[C@@H](Cc1ccccc1)C(=O)N1CCC[C@H]1B(O)O)c1cnccn1`, over 10000 nM.
Same read-out and setting: the result for `O=C(N[C@@H](Cc1ccc2ccccc2c1)C(=O)N1CCC[C@H]1B(O)O)OCc1ccccc1` reads over 10000 nM.
Take `CC(C)C[C@H](NC(=O)N1CCc2ccccc2C1)C(=O)N[C@@H](Cc1ccc2ccccc2c1)C(=O)N1CCC[C@H]1B(O)O`: in assay [1], the 50% inhibitory concentration (IC50) came to 1430 nM.
The same measure, in the same setting: the result for `CC(C)C[C@H](NC(=O)OCc1ccccc1)C(=O)N[C@@H](CC(C)C)C(=O)N1CCC[C@H]1B(O)O` reads 10.9 nM.
Take `O=C(N[C@@H](Cc1ccccc1)C(=O)N1CCC[C@H]1B(O)O)N1CCOCC1`: in assay [1], the 50% inhibitory concentration (IC50) is over 10000 nM.
Still for that read-out and setting: the result for `O=C(N[C@@H](Cc1ccccc1)C(=O)N[C@@H](Cc1ccccc1)C(=O)N1CCC[C@H]1B(O)O)c1cnccn1` reads 478 nM.
On the same count and under the same terms, the result for `O=C(N[C@@H](Cc1ccc2ccccc2c1)C(=O)N1CCC[C@H]1B(O)O)[C@H](Cc1ccccc1)NC(=O)N1CCc2ccccc2C1` reads 2420 nM; that for `O=C(N[C@@H](Cc1ccc(O)cc1)C(=O)N1CCC[C@H]1B(O)O)[C@H](Cc1ccccc1)NC(=O)N1CCc2ccccc2C1`, 7640 nM.
The same measure, in the same setting: the result for `O=C(N[C@@H](Cc1ccccc1)C(=O)N[C@@H](Cc1ccc2ccccc2c1)C(=O)N1CCC[C@H]1B(O)O)OCc1ccccc1` reads 150 nM; that for `CC(C)C[C@H](NC(=O)c1cnccn1)C(=O)N[C@@H](Cc1ccc2ccccc2c1)C(=O)N1CCC[C@H]1B(O)O`, 29.6 nM; that for `O=C(N[C@@H](Cc1ccccc1)C(=O)N1CCC[C@H]1B(O)O)N1CCc2ccccc2C1`, over 10000 nM.
The molecule `CC(C)C[C@H](NC(=O)N(C)Cc1ccccc1)C(=O)N[C@@H](Cc1ccc2ccccc2c1)C(=O)N1CCC[C@H]1B(O)O` registered a 50% inhibitory concentration (IC50) in [1] of 1650 nM.
Regarding `CC(C)C[C@H](NC(=O)OCc1ccccc1)C(=O)N[C@@H](Cc1ccc2ccccc2c1)C(=O)N1CCC[C@H]1B(O)O`, the half-maximal inhibitory concentration (IC50) in assay [2] is under 1 nM; in assay [3] it was 5990 nM; in assay [1], 9.76 to 10 nM; in assay [4], 7 nM; in [7], 12 nM; in assay [8], 18 nM. The IC50 in [9] turned out to be 69 nM. Moreover, the “Ratio IC50” value in [5] amounted to 92.2; in assay [6] it was 69.4.
`O=C(N[C@@H](Cc1ccc2ccccc2c1)C(=O)N1CCC[C@H]1B(O)O)N1CCc2ccccc2C1` came in with an IC50 in [1] of 5360 nM.
On the same count and under the same terms, the result for `CN(Cc1ccccc1)C(=O)N[C@@H](Cc1ccc2ccccc2c1)C(=O)N1CCC[C@H]1B(O)O` reads 7480 nM; that for `O=C(N[C@@H](Cc1ccccc1)C(=O)N1CCC[C@H]1B(O)O)[C@H](Cc1ccccc1)NC(=O)N1CCc2ccccc2C1`, 4170 nM.
As to `CC(C)C[C@H](NC(=O)[C@H](Cc1ccccc1)NC(=O)c1cnccn1)B(O)O` [BORTEZOMIB], the concentration for half-maximal inhibition (IC50) in assay [2] was 8 nM; in assay [1], 8 to 13.3 nM; in [7], 38 nM; in assay [9], 1 nM.
